Test: Solubility of resveratrol in trilaureth-4 phosphate, judged by visual observation of transparency
Assay type: physicochemical
Set-up: key to Solubility: +: partially; from + = partially to +++ = fully soluble; +++: fully soluble
Conditions: for Solubility: 40° C.
Experimental: To evaluate solubility of resveratrol in trilaureth-4 phosphate, the following procedure was adopted: lab glass beakers of 250 ml capacity were filled with the phosphate ester surfactant in the range as indicated in Table 1. The final volume was 50 ml. Solubilization occurs almost instantaneously, however the beakers were vigorously shaken for about 1 minute at 6000 rpm. Level of solubility was judged by visual observation of transparency.

Oc1ccc(/C=C/c2cc(O)cc(O)c2)cc1 [Resveratrol, 5-[(1E)-2-(4-hydroxyphenyl)ethenyl]-1,3-Benzenediol]
threshold level of solubility (in trilaureth-4 phosphate): around 10% | solubility in the emulsifier (in trilaureth-4 phosphate, room temperature): solubilizes well | Solubility (resveratrol 2 wt.-% in trilaureth-4 phosphate 98 wt.-%): +++ | Solubility (resveratrol 4 wt.-% in trilaureth-4 phosphate 96 wt.-%): +++ | Solubility (resveratrol 6 wt.-% in trilaureth-4 phosphate 94 wt.-%): +++ | Solubility (resveratrol 8 wt.-% in trilaureth-4 phosphate 92 wt.-%): +++ | Solubility (resveratrol 10 wt.-% in trilaureth-4 phosphate 90 wt.-%): +++ | Solubility (resveratrol 12 wt.-% in trilaureth-4 phosphate 88 wt.-%): ++

Source: patent US9254252B2, “Compounds” (DSM IP ASSETS B.V., priority 2011, dated 2016)
